Test results published in US8962036B2, “Disintegrable formulations of lanthanum carbonate” (Mylan Pharmaceuticals Inc., priority 2009, dated 2015).

What was measured:
[1] = Disintegration of uncoated, compressed tablets in deionized water (USP <701>); type: physicochemical; conditions: whole, intact tablet in deionized water; single tablet per example
Description: The uncoated, compressed tablets were assessed for disintegration. The disintegration time was measured using the procedure and apparatus as described by physical test <701>, Disintegration, from The United States Pharmacopeia, Volume 29. The disintegration of a single tablet from each example was measured.

[2] = Phosphate Binding Assay (excess phosphate, pH 3.0, 37° C., ion chromatography); conditions: 2.5 mg La2(CO3)3/mL phosphate solution, 60 minutes; for Binding Capacity, Ground Tablet: whole tablet coarsely ground before analysis; for Binding Capacity, Whole Tablet: whole tablet without further modification
Description: Table II describes the phosphate binding ability of the prepared Examples in either whole or ground tablet form. The ground tablets simulate a chewable tablet formulation after chewing has occurred. Phosphate binding ability is a term used to predict the amount of phosphate that can be bound by a sequestrant under conditions which employ a large excess of phosphate, such as those found in the stomach. Mazzeo, J. R.; et. al. Journal of Pharmaceutical and Biomedical Analysis 1999, vol. 19, pps. 911-915. This assay, which utilizes a large excess of phosphate, is therefore a better functional model of biological conditions than the assay described in U.S. Pat. No. 5,968,976 which utilizes only two molar equivalents of phosphate ion per mole of lanthanum carbonate.
The uncoated, compressed tablets obtained from Examples 1-17 were assessed for phosphate binding ability. Whole tablets, prepared as described above, as well as coarsely ground tablets were both examined.
i. Preparation of stock phosphate solution:
21.4 g N,N-bis(hydroxyethyl)-2-aminoethanesulfonic acid, 4.7 g NaCl, and 2.7 g KH2PO4 (ultra high purity) were added to a 1000 mL volumetric flask and dissolved in 950 mL DI H2O. The pH was then adjusted to 3.0 (±0.05) with HCl, and the solution was diluted to volume with DI H2O and mixed.
The lanthanum carbonate complex was added to the stock phosphate solution so that the final concentration was 2.5 mg La2(CO3)3/mL phosphate solution. The mixture was heated at 37° C. for 60 minutes with constant swirling. It was then filtered through a 0.2 μm nylon filter.
The sample was then diluted to allow injection into the ion chromatograph. Here, a dilution factor of 100 was used: a 1.0 mL aliquot was removed and diluted volumetrically to 100 mL with DI water.
iii. Phosphate Measurement
The amount of unbound phosphate was determined by ion chromatography on a Dionex ICS-1500 ion chromatograph equipped with a conductivity cell (35° C.) and a Dionex MRS 300 4 mm auto suppressor. Material was eluted through a Dionex AG11-HC guard column (4×50 mm) and a Dionex AS11-HC column (4×250 mm) at 1.0 mL/min using 25 mM NaOH in DI H2O as the mobile phase. The sample response was then recorded by a computerized chromatography data system.
iv. Construction of Phosphate Calibration Curve
The linearity of the response was verified as follows. A series of standards over a wide range of free phosphate concentration (approximately 0.04, 0.06, 0.10, 0.15, 0.20, and 0.25 mM) were prepared and their ion chromatographic responses were determined. A plot of free phosphate concentration (mM) vs. response was then constructed. The slope and y-intercept of the resulting linear regression plot were then determined.
The phosphate binding capacity was calculated from the following equations.

Row | Disintegration Time [1] [h] | Binding Capacity, Ground Tablet [2] | Binding Capacity, Whole Tablet [2] | Compound
1 | 5 | 3.0 mmol PO4-2/g La2(CO3)3 | 0.7 mmol PO4-2/g La2(CO3)3 | O=C([O-])[O-].O=C([O-])[O-].O=C([O-])[O-].[La+3].[La+3] [Example 14, La2(CO3)3•5H20]
2 | >7 | 3.0 mmol PO4-2/g La2(CO3)3 | 0.6 mmol PO4-2/g La2(CO3)3 | O.O.O.O.O.O.O.O.O=C([O-])[O-].O=C([O-])[O-].O=C([O-])[O-].[La+3].[La+3] [Example 15, La2(CO3)3•8H20]
3 | >7 | 3.6 mmol PO4-2/g La2(CO3)3 | 0.8 mmol PO4-2/g La2(CO3)3 | O.O.O.O.O.O.O.O.O.O.O.O.O.O.O=C([O-])[O-].O=C([O-])[O-].O=C([O-])[O-].[La+3].[La+3] [Example 16, La2(CO3)3•14H20]
